{"source": "patent EP2423181A1", "about": "“Multitarget substituted biphenyl diol derivatives” (PROUS INSTITUTE FOR BIOMEDICAL RESEARCH S.A., priority 2010, dated 2012)", "key": {"[1]": {"experiment": "Maximum Tolerated Dose after acute administration", "details": "mouse, in vivo, ip, mice", "method": "The Maximum Tolerated Dose (MTD) in mice was determined for selected compounds. The protocol of the studies was in accordance with the standard guidelines for drug development: • (htp://dtp.nci.nih.gov/branches/btb/acute tox.html). Table 10. Maximum Tolerated Doses in mice after acute i.p. administration"}, "[2]": {"target": "T1, Gonadotrophin-releasing hormone receptors (GnRH, LH-RH)R (Homo sapiens, UniProt P30968)", "T1 construct": "expressed in transfected cells; host or cells: Chem-1 cells", "T1 sequence (P30968 1-328)": "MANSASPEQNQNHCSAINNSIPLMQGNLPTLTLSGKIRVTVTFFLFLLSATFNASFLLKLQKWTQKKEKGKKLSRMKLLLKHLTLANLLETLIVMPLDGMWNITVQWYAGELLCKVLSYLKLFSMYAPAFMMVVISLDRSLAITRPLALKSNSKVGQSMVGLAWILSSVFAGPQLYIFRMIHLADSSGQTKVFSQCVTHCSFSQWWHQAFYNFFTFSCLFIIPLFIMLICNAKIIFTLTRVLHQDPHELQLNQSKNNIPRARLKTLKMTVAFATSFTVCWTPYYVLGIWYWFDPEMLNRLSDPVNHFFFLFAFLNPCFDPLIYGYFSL", "experiment": "GnRH radioligand binding assay", "details": "read-out: % Inhibition at 10 µM", "text": "Gonadotrophin-releasing hormone receptors (GnRH, LH-RH)R are a family of G protein-coupled receptors for GnRH, which promotes the secretion of luteinizing hormone (LH) and follicle-stimulating hormone (FSH). The activation of this receptor promotes, through estrogen receptors (ER) located in the cytosol, an increase in gene transcription and activation of tumor suppressor genes, DNA repair, cell division and cell proliferation. GnRH agonists are useful in breast, prostate and ovarian cancer, endometriosis, melanoma, rheumatoid arthritis and Alzheimer's disease. Table 17 presents the results from radioligand binding studies for GnRH for selected compounds using human recombinant Chem-1 cells (Halmos G, Schally AV, Pinski J, Vadillo-Buenfill M, Groot K. Down regulation of pituitary receptors for luteinizing hormone-releasing hormone (LH-RH) in rats by LH-RH antagonist Cetrorelix. Prco Natl Acad Sci USA 1996;93(6):2398-2402). The specific and non specific ligands used were [^125l] [D-Trp^6]-LH-RH (0.05 nM) and [D-Trp^6]-LH-RH ([…]) and after 60 min of incubation at 25°C in a 50 mM HEPES, pH 7.5, 5 mM MgCl2, 1 mM CaCl2, and 0.2% BSA the activity was measured by radioligand binding. Table 17. GnRH radioligand binding assay"}, "[3]": {"test_system": "mice", "experiment": "Formalin test (antinociceptive activity)", "format": "in vivo", "details": "for Early Response / Late Response: formalin test, dose 10-30 mg/Kg i.p.; for Early Response: early response 0-5 min; for Late Response: late response 20-30 min", "method": "The chemical irritant formalin test is used as a chronic pain model in animals. The s.c. administration of formalin to the paw of a mouse produces a biphasic nociceptive behavioral response, an early response (0-5 min after injection) and a late response (20-30 min after injection) (Hunskaar, S., Fasmer, O.B., Hole, K. Formalin test in mice, a useful technique for evaluating mild analgesics. J Neurosci Methods, 1985 ;14(1):69-76).\nAspirine and paracetamol are included as external active references in early and late response. Table 12. Early and late response inhibition in the formalin test."}, "[4]": {"target": "T2, Akt3 (PRKBG) (Homo sapiens, UniProt Q9Y243)", "T2 construct": "host or cells: insect cells", "T2 sequence (Q9Y243 whole entry)": "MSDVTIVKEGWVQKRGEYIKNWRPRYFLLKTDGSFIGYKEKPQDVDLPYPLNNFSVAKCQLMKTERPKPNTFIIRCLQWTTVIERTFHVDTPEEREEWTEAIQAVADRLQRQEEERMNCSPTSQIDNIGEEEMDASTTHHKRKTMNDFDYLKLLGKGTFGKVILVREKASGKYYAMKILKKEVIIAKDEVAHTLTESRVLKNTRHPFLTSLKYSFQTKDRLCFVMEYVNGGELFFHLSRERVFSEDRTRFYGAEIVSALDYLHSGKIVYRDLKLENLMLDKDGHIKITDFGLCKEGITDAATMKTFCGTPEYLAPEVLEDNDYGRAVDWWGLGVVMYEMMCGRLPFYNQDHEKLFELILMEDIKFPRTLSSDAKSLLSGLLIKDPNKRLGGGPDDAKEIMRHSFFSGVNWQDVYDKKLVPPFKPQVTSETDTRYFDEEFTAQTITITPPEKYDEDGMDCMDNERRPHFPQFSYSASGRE", "experiment": "Akt3 kinase inhibition ([32P]Crosstide KK)", "format": "biochemical", "method": "Akt3 activity was obtained in human recombinant insect cells using Crosstide KK 10 µM as a substrate. The incubation buffer was 20 mM MOPS, pH 7.2, 25 mM β-Glycerophosphate, 1 mM DTT, 5 mM EGTA, 20 mM MgCl2, 1 mM Na3VO4 and the preincubation and incubation times 15 and 30 min, respectively, at 37°C. The quantification of inhibition was assessed by the measure of [^32P]Crosstide KK (Laine, J. Et al. J Biol Chem 2002, 277(5), 3743-3751). Table 6. Inhibition of Akt3 (PRKBG) at 10 µM"}, "[5]": {"target": "T3, MAPK1 (ERK2) (Homo sapiens, UniProt P28482)", "T3 construct": "host or cells: E. coli", "T3 sequence (P28482 whole entry)": "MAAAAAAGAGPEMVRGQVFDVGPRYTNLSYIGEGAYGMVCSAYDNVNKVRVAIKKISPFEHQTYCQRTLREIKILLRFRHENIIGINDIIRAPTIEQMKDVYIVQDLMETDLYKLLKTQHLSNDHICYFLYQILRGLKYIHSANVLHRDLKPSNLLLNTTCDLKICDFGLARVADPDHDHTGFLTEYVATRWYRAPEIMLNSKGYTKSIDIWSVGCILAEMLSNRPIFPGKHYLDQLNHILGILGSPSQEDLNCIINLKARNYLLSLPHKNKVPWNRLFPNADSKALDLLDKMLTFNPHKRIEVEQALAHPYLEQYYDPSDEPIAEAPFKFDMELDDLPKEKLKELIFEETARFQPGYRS", "experiment": "MAPK1 (ERK2) kinase inhibition ([32P]MBP)", "format": "biochemical", "method": "Protein serine threonine kinase MAPK1(ERK2) was assessed in human recombinant E.Coli using 50 µg/ml myelin basic protein (MBP) as a substrate after preincubation and incubation times of 15 and 30 min, respectively, at 37°C in 20 mM MOPS, pH 7.2, 5 mM EGTA, 20 mM MgCl2, 1 mM DTT, 25 mM β-glycerophosphate, 1 mM Na3VO4 incubation buffer. The inhibitory activity was measured by quantification of [^32P]MBP (Jonhson, G.L. and Lapadat, R. Science 2002, 298(5600), 1911-1912). Table 8. Inhibition of MAPK1 at 10 µM"}, "[6]": {"target": "T4, CDK2/CCNA2 (cdk2/cyclin A) (Homo sapiens, UniProt P24941)", "T4 construct": "host or cells: Sf21 insect cells", "experiment": "CDK2/cyclin A kinase inhibition ([32P]Histone H1)", "format": "biochemical", "method": "Human recombinant Sf21 cells were employed to assess the activity on protein serine threonine kinase CDK2/CCNA2 (cdk2/cyclin A). Histone H1 at 100 µg/ml was used as a substrate and the activity was measured by quantification of [^32P]Histone H1 after preincubation and incubation times of 15 and 30 min, respectively, at 37°C in 20 mM MOPS, pH 7.2, 5 mM EGTA, 20 mM MgCl2, 1 mM DTT, 25 mM β-Glycerophosphate, 1 mM Na3V04 incubation buffer (Gray, N. et al. Curr Med Chem, 1999, 6(9):859-875). Table 7. Inhibition of CDK2 at 10 µM"}, "[7]": {"target": "ERβ (Homo sapiens, UniProt Q92731)", "sequence (Q92731 whole entry, species assumed)": "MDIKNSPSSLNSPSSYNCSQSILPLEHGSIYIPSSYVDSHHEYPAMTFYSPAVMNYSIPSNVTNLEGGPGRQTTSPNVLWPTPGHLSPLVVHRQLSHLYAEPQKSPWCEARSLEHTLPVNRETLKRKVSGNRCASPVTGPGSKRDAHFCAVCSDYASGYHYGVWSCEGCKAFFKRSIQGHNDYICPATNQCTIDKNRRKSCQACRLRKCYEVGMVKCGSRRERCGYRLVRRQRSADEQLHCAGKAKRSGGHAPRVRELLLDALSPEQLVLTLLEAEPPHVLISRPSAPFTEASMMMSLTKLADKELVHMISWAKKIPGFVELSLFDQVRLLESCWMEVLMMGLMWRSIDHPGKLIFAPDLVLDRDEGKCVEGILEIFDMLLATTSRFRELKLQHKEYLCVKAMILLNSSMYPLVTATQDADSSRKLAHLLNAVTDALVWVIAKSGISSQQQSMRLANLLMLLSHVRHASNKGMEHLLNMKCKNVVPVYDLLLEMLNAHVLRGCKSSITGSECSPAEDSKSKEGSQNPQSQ", "experiment": "Inhibition of ERβ", "format": "binding", "details": "slight, non-significant"}, "[8]": {"target": "T5, Src (Homo sapiens, UniProt P12931)", "T5 construct": "host or cells: Sf9 insect cells", "T5 sequence (P12931 whole entry)": "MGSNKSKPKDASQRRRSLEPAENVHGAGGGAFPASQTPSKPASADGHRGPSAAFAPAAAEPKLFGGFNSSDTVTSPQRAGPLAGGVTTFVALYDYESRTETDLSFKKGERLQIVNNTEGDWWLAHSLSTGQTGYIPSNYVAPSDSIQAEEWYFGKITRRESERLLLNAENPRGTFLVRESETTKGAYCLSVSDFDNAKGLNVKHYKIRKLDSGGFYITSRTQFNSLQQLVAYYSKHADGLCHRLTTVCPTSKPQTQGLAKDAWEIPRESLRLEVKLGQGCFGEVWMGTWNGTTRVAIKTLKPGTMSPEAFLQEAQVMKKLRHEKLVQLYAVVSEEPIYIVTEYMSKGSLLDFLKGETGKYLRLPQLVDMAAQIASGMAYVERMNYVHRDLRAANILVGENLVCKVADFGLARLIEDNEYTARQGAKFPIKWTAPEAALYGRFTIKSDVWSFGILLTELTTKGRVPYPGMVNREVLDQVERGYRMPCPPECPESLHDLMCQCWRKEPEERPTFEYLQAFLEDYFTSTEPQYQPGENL", "experiment": "Src protein tyrosine kinase inhibition (ELISA of Poly[Glu:Tyr-P])", "format": "biochemical", "method": "Src protein tyrosine kinase activity was assessed in human recombinant insect Sf9 cells using as a substrate Poly(Glu:Tyr) at 10 µg/mL with preincubation and incubation times of 15 and 5 min, respectively, at 22°C in 50 mM HEPES, pH 7.4, 1 mM DTT, 20 mM MgCl2 and 0.2 mM Na3VO4. An ELISA quantitation method of Poly[Glu:Tyr-P] was employed (Farley, K et al. Anal Biochem, 1992, 203, 151-157). Table 4. Inhibition of Src at 10 µM"}}, "note": "Where a name gives a salt, the structure may show the parent alone. Read-outs that look alike come from different tables or passages of the source.", "data": [{"smiles": "C=CCc1ccc(O)c(-c2cc(CC=C)ccc2OC(CCNC)c2ccccc2)c1.Cl", "note": "(stereo not drawn) [Example 1, 5,5'-Diallyl-2'-[3-(methylamino)-1-phenylpropoxy]biphenyl-2-ol hydrochloride]", "values": [{"measurement": "MTD", "setting": "[1]", "result": 25, "unit": "mg/kg"}, {"measurement": "inhibition at 10 µM", "setting": "[2]; GnRH radioligand binding, 10 µM", "result": 50, "unit": "%"}, {"measurement": "antinociceptive activity in the formalin test", "setting": "[3]; 30 mg/kg i.p, early and late phases, potency similar to morphine 10 mg/kg i.p.", "result": "relevant antinociceptive activity"}, {"measurement": "Early Response", "setting": "[3]", "result": "slightly active"}, {"measurement": "Late Response", "setting": "[3]", "result": "active"}, {"measurement": "inhibition at 10 µM", "setting": "[4]; Akt3 (PRKBG), at 10 µM, read-out: % Inhibition", "result": 99, "unit": "%"}, {"measurement": "inhibition at 10 µM", "setting": "[5]; MAPK1, at 10 µM, read-out: % Inhibition", "result": 58, "unit": "%"}, {"measurement": "inhibition at 10 µM", "setting": "[6]; CDK2, at 10 µM, read-out: % Inhibition", "result": 92, "unit": "%"}, {"measurement": "inhibition at 10 µM", "setting": "[7]", "result": 7, "unit": "%"}, {"measurement": "inhibition at 10 µM", "setting": "[8]; Src, at 10 µM, read-out: % Inhibition", "result": 99, "unit": "%"}]}, {"smiles": "C=CCc1ccc(O)c(-c2ccc(OC(CCNC)c3ccccc3)c(CC=C)c2)c1", "note": "(stereo not drawn) [Example 5, 3',5-Diallvl-4'-13-(methylamino)-1-phenylpropoxy]biphenyl-2-ol hydrochloride]", "values": [{"measurement": "MTD", "setting": "[1]", "result": 25, "unit": "mg/kg"}, {"measurement": "inhibition at 10 µM", "setting": "[2]", "result": 37, "unit": "%"}, {"measurement": "Early Response", "setting": "[3]", "result": "slightly active"}, {"measurement": "Late Response", "setting": "[3]", "result": "Active"}, {"measurement": "inhibition at 10 µM", "setting": "[4]", "result": 101, "unit": "%"}, {"measurement": "inhibition at 10 µM", "setting": "[5]", "result": 80, "unit": "%"}, {"measurement": "inhibition at 10 µM", "setting": "[6]", "result": 98, "unit": "%"}, {"measurement": "inhibition at 10 µM", "setting": "[8]", "result": "> 100", "unit": "%"}]}]}
